Assay results as given in patent US12285432B2, “Treatment of hair loss disorders with deuterated JAK inhibitors” (Sun Pharmaceutical Industries, Inc., priority 2021, dated 2025).
Read-outs that look alike come from different tables or passages of the source.

Columns and labels:
[1] = Drug-drug interaction study of Compound (I) (CTP-543) and itraconazole in healthy volunteers, plasma pharmacokinetics; assay type: in vivo, human
alopecia areata = assay: Human clinical trials of CTP-543 in patients suffering from alopecia areata; assay type: in vivo
[2] = cited from earlier work
[3] = 12 mg Compound (I) alone (Reference), healthy volunteers, plasma
[4] = 12 mg Compound (I) with vs without itraconazole
[5] = 10 mg ruxolitinib with vs without ketoconazole 200 mg twice a day, healthy volunteers

SMILES	AUC(0-Tlast) [1, 3]	AUC(0-∞) [1, 3]	AUC(0-Tlast) ([1]; 12 mg Compound (I) with itraconazole 200 mg (Test), healthy volunteers, plasma)	increase in the AUC as a result of dosing with itraconazole [1, 4]	increase in the Cmax as a result of dosing with itraconazole [1, 4]	half-life ([1]; Compound (I) without itraconazole)	Cmax ([1]; human, plasma, 12 mg)	half-life ([1]; human, plasma, 12 mg, read-out: t1/2 (converted))	half-life ([1]; human, plasma, read-out: half-life (converted))	hair growth in patients suffering from alopecia areata (alopecia areata)	half-life ([2]; 10 mg ruxolitinib dosed with ketoconazole)	AUC increase as a result of dosing with ketoconazole [2, 5]	Cmax increase as a result of dosing with ketoconazole [2, 5]	half-life ([2]; 10 mg ruxolitinib without ketoconazole)
[2H]C1([2H])C([C@@H](CC#N)n2cc(-c3ncnc4[nH]ccc34)cn2)C([2H])([2H])C([2H])([2H])C1([2H])[2H] [Compound (I), (R)-3-(4-(7H-pyrrolo[2,3-d]pyrimidin-4-yl)-1H-pyrazol-1-yl)-3-(cyclopentyl-2,2,3,3,4,4,5,5-d8)propanenitrile]	1326.80 ng·h/mL	1332.48 ng·h/mL	1679.53 ng·h/mL	~27%	~13%	4.18 h	266 ng/mL	4.13 h	4.62 h	stimulate hair growth				
N#CC[C@H](C1CCCC1)n1cc(-c2ncnc3[nH]ccc23)cn1.O=P(O)(O)O [ruxolitinib, (R)-3-(4-(7H-pyrrolo[2,3-d]pyrimidin-4-yl)-1H-pyrazol-1-yl)-3-cyclopentylpropanenitrile phosphate]											6.0 h	91%	33%	3.7 h
